Values of other authors as cited in patent USRE41148E1, “Oral pulsed dose drug delivery system” (Shire Laboratories, Inc., priority 1998, dated 2010).

How the values were obtained:
[1] = pulsatile capsule, release after nominal 5-hr period, majority of subjects
[2] = wax-surfactant coating level 60%

SMILES	drug observed in the blood [1]	lag time of drug release [2]	time required for complete release after the lag time [2]
C[C@H](CS)C(=O)N1CCC[C@H]1C(=O)O [captopril]	no measurable amounts		
Cn1c(=O)c2[nH]cnc2n(C)c1=O [theophylline]		two-hour	three hours
